Assay results published in patent publication US8912144B2, “Method for treating stroke via administration of NEP1-40 and inosine” (Children's Medical Center Corporation, priority 2003, dated 2014).

Test system: corticospinal neurons (CSNs/CSMNs)
Experiment: Laser-capture microdissection and Illumina microarray gene expression in corticospinal neurons contralateral to stroke
Format: in vivo, rat
Conditions: for Signal Intensity, Treatment after Stroke: Inosine: CSMNs contralateral to SMA infarct
Method: In a separate group of animals (n=20), layer V pyramidal cells of the sensorimotor cortex were retrogradely labeled by injecting Alexa-Fluor-488-conjugated cholera toxin B subunit (CTB; 300 U/μl in sterile saline) into the cervical spinal cord. For this, animals were anesthetized with a combination of ketamine and Domitor (medetomidine) and a laminectomy was performed at the cervical level of the spinal cord (C2-C4). CTB was stereotaxically delivered into four sites lateral to the corticospinal tract. Injections (1.3 μl) were spaced 1 mm apart on the rostro-caudal axis, and were made 0.5 mm to the left and right of the midline. After allowing two weeks for transport of the tracer, we performed either sham surgery with no treatment (n=6) or stroke surgery combined with saline (n=3) or inosine (n=4) treatment as described above. Seven days later, animals were decapitated under transient gas anesthesia, brains were removed and rinsed in cold RPMI medium, and a tissue block containing the sensorimotor cortex was dissected and placed in OCT Tissue Tek Medium (Sakura Finetek USA Inc., CA) on dry ice within five minutes of death. Ten μm sections were cut onto precleaned Gold Seal RITE-ON glass slides (Gold Seal Prod-ucts, Portsmouth, N.H.), placed on dry ice, and rapidly stored at −80° C.
Slide-mounted sections were thawed and dehydrated in RNAse-free ethanol gradients and xylene. Retro-gradely labeled, fluorescent cortical pyramidal cells in the undamaged hemisphere were individually captured using the Arcturus VERITAS system. ≧500 cells were collected from each animal and stored in Arcturus extraction buffer at −80° C. Total RNA was extracted from cells using the Micro-to-Midi TotalRNA Purification System (Invitrogen, Carlsbad Calif.) and double-amplified using the TargetAmp 2-Round Aminoallyl-aRNA Amplification kit 1.0 (Epicentre, Madison, Wis.). Amplified RNA was checked for average fragment length using the Agilent RNA 6000 Nano LabChip kit (Agilent Technologies, Santa Clara, Calif.) and then biotinylated and hybridized (1 μg) on Illumina RatRef-12 Expression BeadChip arrays (Illumina, San Diego Calif.), querying the expression of >22,000 RefSeq-curated rat transcripts. Results were obtained from a total of 15 samples representing 6 untreated controls, 4 animals with stroke treated with saline and 5 animals with stroke treated with inosine. Slides were processed and scanned with Illumina BeadStation platform according to the manufacturer protocol.
Raw data was analyzed using Bioconductor packages (www.bioconductor.org, (Gentleman et al., 2004)). Low level quality-control analysis was performed using inter-array Pearson correlation and clustering based on variance. Two arrays (1 saline and 1 inosine-treated) were outliers and were excluded from the analysis. Data was normalized using quantile normalization, and analysis of differential expression was performed using a linear model fitting (LIMMA package, (Smyth, 2005). Differentially expressed genes were classified according to gene ontology using Bioconductor packages and online tools (DAVID, http://david.abcc.ncifcrf.gov/). Pathway analysis was carried out using Ingenuity Pathway Analysis (Ingenuity Systems, www.ingenuity.com).

OC[C@H]1O[C@@H](n2cnc3c(O)ncnc32)[C@H](O)[C@@H]1O [inosine]
Signal Intensity Inosine (Lgals3bp ILMN_60037): 629 | Fold-Induction Stroke, ino vs. cntrl (Man2b1 ILMN_65999): 2.64 | Signal Intensity Inosine (Man2b1 ILMN_65999): 1676 | Fold-Induction Stroke, ino vs. cntrl (Map2k6 ILMN_53013): 1.19 | Signal Intensity Inosine (Map2k6 ILMN_53013): 3981 | Fold-Induction Stroke, ino vs. cntrl (Mt1a ILMN_53575): 3.68 | Signal Intensity Inosine (Mt1a ILMN_53575): 3267 | Fold-Induction Stroke, ino vs. cntrl (Nfkbia ILMN_49934): 2.69 | Signal Intensity Inosine (Nfkbia ILMN_49934): 3250 | Fold-Induction Stroke, ino vs. cntrl (Oplah ILMN_65374): 2.05 | Signal Intensity Inosine (Oplah ILMN_65374): 2440 | Fold-Induction Stroke, ino vs. cntrl (Pfc ILMN_56164): 2.02 | Signal Intensity Inosine (Pfc ILMN_56164): 1375 | Fold-Induction Stroke, ino vs. cntrl (Pkn1 ILMN_63766): 1.69 | Signal Intensity Inosine (Pkn1 ILMN_63766): 2365 | Fold-Induction Stroke, ino vs. cntrl (Plcd1 ILMN_50502): 1.90 | Signal Intensity Inosine (Plcd1 ILMN_50502): 1514 | Fold-Induction Stroke, ino vs. cntrl (Plek ILMN_57609): 2.99 | Signal Intensity Inosine (Plek ILMN_57609): 1937 | Fold-Induction Stroke, ino vs. cntrl (Pnck ILMN_66828): 1.65 | Signal Intensity Inosine (Pnck ILMN_66828): 8946 | Fold-Induction Stroke, ino vs. cntrl (Polrmt ILMN_59207): 1.52 | Signal Intensity Inosine (Polrmt ILMN_59207): 1219 | Fold-Induction Stroke, ino vs. cntrl (Ppp1r14b ILMN_59774): 2.26 | Signal Intensity Inosine (Ppp1r14b ILMN_59774): 2071 | Fold-Induction Stroke, ino vs. cntrl (Ptpn6 ILMN_61314): 3.52 | Signal Intensity Inosine (Ptpn6 ILMN_61314): 957 | Fold-Induction Stroke, ino vs. cntrl (Ptprr ILMN_55987): 1.04 | Signal Intensity Inosine (Ptprr ILMN_55987): 676 | Fold-Induction Stroke, ino vs. cntrl (RGD1309326 ILMN_60781): 1.43 | Signal Intensity Inosine (RGD1309326 ILMN_60781): 2333 | Fold-Induction Stroke, ino vs. cntrl (RT1-Da ILMN_59933): 11.11 | Signal Intensity Inosine (RT1-Da ILMN_59933): 3072 | Fold-Induction Stroke, ino vs. cntrl (Rbl2 ILMN_59080): 1.30 | Signal Intensity Inosine (Rbl2 ILMN_59080): 1060 | Fold-Induction Stroke, ino vs. cntrl (Rfx1 ILMN_50833): 1.51 | Signal Intensity Inosine (Rfx1 ILMN_50833): 4995 | Fold-Induction Stroke, ino vs. cntrl (Rhoj ILMN_58882): 2.67 | Signal Intensity Inosine (Rhoj ILMN_58882): 588 | Fold-Induction Stroke, ino vs. cntrl (Rhot2 ILMN_62537): 1.68 | Signal Intensity Inosine (Rhot2 ILMN_62537): 1112 | Fold-Induction Stroke, ino vs. cntrl (Rnaset2 ILMN_55431): 2.31 | Signal Intensity Inosine (Rnaset2 ILMN_55431): 7227 | Fold-Induction Stroke, ino vs. cntrl (Serpinb1a ILMN_57422): 2.68 | Signal Intensity Inosine (Serpinb1a ILMN_57422): 589 | Fold-Induction Stroke, ino vs. cntrl (Serping1 ILMN_60046): 3.19 | Signal Intensity Inosine (Serping1 ILMN_60046): 1251 | Fold-Induction Stroke, ino vs. cntrl (Sgpp1 ILMN_57304): 0.44 | Signal Intensity Inosine (Sgpp1 ILMN_57304): 316 | Fold-Induction Stroke, ino vs. cntrl (Slc9a1 ILMN_53105): 1.32 | Signal Intensity Inosine (Slc9a1 ILMN_53105): 2100 | Fold-Induction Stroke, ino vs. cntrl (Slc35b4 ILMN_68450): 1.41 | Signal Intensity Inosine (Slc35b4 ILMN_68450): 430 | Fold-Induction Stroke, ino vs. cntrl (Smoc2 ILMN_60870): 3.79 | Signal Intensity Inosine (Smoc2 ILMN_60870): 1123 | Fold-Induction Stroke, ino vs. cntrl (Soc ILMN_57817): 1.36 | Signal Intensity Inosine (Soc ILMN_57817): 1341 | Fold-Induction Stroke, ino vs. cntrl (Srebf1 ILMN_51834): 1.47 | Signal Intensity Inosine (Srebf1 ILMN_51834): 1069 | Fold-Induction Stroke, ino vs. cntrl (Tcirg1 ILMN_52949): 2.81 | Signal Intensity Inosine (Tcirg1 ILMN_52949): 2173 | Fold-Induction Stroke, ino vs. cntrl (Timp1 ILMN_62559): 3.57 | Signal Intensity Inosine (Timp1 ILMN_62559): 2293 | Fold-Induction Stroke, ino vs. cntrl (Tle2 ILMN_54011): 3.03 | Signal Intensity Inosine (Tle2 ILMN_54011): 2295 | Fold-Induction Stroke, ino vs. cntrl (Tm6p1 ILMN_57902): 1.99 | Signal Intensity Inosine (Tm6p1 ILMN_57902): 1532 | Fold-Induction Stroke, ino vs. cntrl (Trim39 ILMN_54591): 1.35 | Signal Intensity Inosine (Trim39 ILMN_54591): 1351 | Fold-Induction Stroke, ino vs. cntrl (Unc93b ILMN_53114): 2.10 | Signal Intensity Inosine (Unc93b ILMN_53114): 600 | Signal Intensity, Treatment after Stroke: Inosine (gene P2rxl1 (ILMN_68585)): 246 | Signal Intensity, Treatment after Stroke: Inosine (gene Tm7sf2 (ILMN_58100)): 419
